# According to patent US20120058989A1, “ANTIBACTERIAL FLUOROQUINOLONE ANALOGS” (Achaogen, Inc., priority 2008, published 2012):
# Key:
# Experiment in all cases: MIC, CLSI broth microdilution
# Format in all cases: cell-based
# [1] = test system: E. coli AECO001 (Fluoroquinolone susceptible, ATCC25922)
# Outline: (§1)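 MICs were read after 20 hours at 35° C in ambient air, with a final inoculum of 5×10^5 CFU/mL from saline-suspended overnight colonies. Serial two-fold dilutions in Mueller Hinton Broth followed the CLSI reference method (M7-A7), with QC strains E. coli ATCC 25922, P. aeruginosa ATCC 27853 and S. aureus ATCC 29213.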
# [2] = test system: P. aeruginosa APAE054 (Fluoroquinolone-resistant)
# Outline: as §1
# [3] = test system: A. baumannii AABA1009 (Fluoroquinolone-resistant); conditions: Table 2
# Outline: as §1
# [4] = test system: A. baumannii AABA1065 (Fluoroquinolone-susceptible)
# Outline: as §1
# [5] = test system: S. aureus ASAU002 (Fluoroquinolone-susceptible, ATCC33591 (MRSA)); conditions: Table 3
# Outline: as §1
# [6] = test system: S. aureus ASAU001 (Fluoroquinolone-susceptible, ATCC29213)
# Outline: as §1
# [7] = test system: E. coli AECO066 (Fluoroquinolone-resistant)
# Outline: as §1
# [8] = test system: S. aureus ASAU1031 (Fluoroquinolone-resistant)
# Outline: as §1
# [9] = test system: E. coli AECO086 (Fluoroquinolone-resistant); conditions: Table 3
# Outline: as §1
# [10] = test system: E. coli AECO002 (Fluoroquinolone susceptible); conditions: Table 3
# Outline: as §1
# [11] = test system: S. aureus ASAU1033 (Fluoroquinolone-resistant); conditions: Table 3
# Outline: as §1
# [12] = test system: S. pneumoniae ASPN002 (Fluoroquinolone-susceptible, ATCC10813); conditions: Table 3
# Outline: as §1
# [13] = test system: P. aeruginosa APAE002 (Fluoroquinolone susceptible); conditions: Table 3
# Outline: as §1
# [14] = test system: P. aeruginosa APAE001 (Fluoroquinolone-susceptible, ATCC27853)
# Outline: as §1
# [15] = test system: S. pneumoniae ASPN001 (Fluoroquinolone-susceptible, ATCC49619)
# Outline: as §1
# [16] = test system: S. pneumoniae ASPN1018 (Fluoroquinolone-resistant); conditions: Table 3
# Outline: as §1
# [17] = test system: A. baumannii AABA1020 (Fluoroquinolone-resistant); conditions: Table 3
# Outline: as §1
# [18] = test system: S. pneumoniae ASPN1027 (Fluoroquinolone-resistant)
# Outline: as §1
Structure (SMILES),"MIC AECO 001 ([1]; Table 2, 35° C., 20 hours)",MIC AECO 001 ([1]; Table 3),MIC APAE 054 ([2]; Table 2),MIC APAE 054 ([2]; Table 3),MIC AABA 1009 [3],MIC AABA 1065 ([4]; Table 2),MIC AABA 1065 ([4]; Table 3),MIC ASAU002 [5],MIC ASAU 001 ([6]; Table 2),MIC ASAU 001 ([6]; Table 3),MIC AECO 066 ([7]; Table 2),MIC AECO 066 ([7]; Table 3),MIC ASAU 1031 ([8]; Table 2),MIC ASAU 1031 ([8]; Table 3),MIC AECO086 [9],MIC AECO002 [10],MIC ASAU1033 [11],MIC ASPN002 [12],MIC APAE002 [13],MIC APAE 001 ([14]; Table 2),further results
"N[C@@H]1CCN2c3c(F)cc4c(=O)c(C(=O)O)cn(C5CC5)c4c3C=CC[C@H]12.O=C(O)C(F)(F)F [16/16, (7aR,8R)-8-Amino-4-cyclopropyl-12-fluoro-1-oxo-4,7,7a,8,9,10-hexahydro-1H-pyrrolo[1′,2′:1,7]azepino[2,3-h]quinoline-2-carboxylic acid trifluoroacetate]",A (MIC's of 1.0 μg/mL or less = A),A (MIC's of less than 1.0 = A),C (MIC's of greater than 8.0 μg/mL = C),D (MIC's of greater than 8.0 μg/mL = D),B (MIC's of greater than 1.0 μg/mL to 8.0 μg/mL = B),A (MIC's of 1.0 μg/mL or less = A),A (MIC's of less than 1.0 = A),A (MIC's of less than 1.0 = A),A (MIC's of 1.0 μg/mL or less = A),A (MIC's of less than 1.0 = A),B (MIC's of greater than 1.0 μg/mL to 8.0 μg/mL = B),C (MIC's of 2.0 μg/mL to 8.0 μg/mL = C),A (MIC's of 1.0 μg/mL or less = A),A (MIC's of less than 1.0 = A),B (MIC's of 1.0 μg/mL to 2.0 μg/mL = B),A (MIC's of less than 1.0 = A),B (MIC's of 1.0 μg/mL to 2.0 μg/mL = B),A (MIC's of less than 1.0 = A),A (MIC's of less than 1.0 = A),A (MIC's of 1.0 μg/mL or less = A),MIC APAE 001 ([14]; Table 3): A (MIC's of less than 1.0 = A); MIC ASPN 001 ([15]; Table 2): A (MIC's of 1.0 μg/mL or less = A); MIC ASPN 001 ([15]; Table 3): A (MIC's of less than 1.0 = A); MIC ASPN1018 [16]: A (MIC's of less than 1.0 = A); MIC AABA1020 [17]: C (MIC's of 2.0 μg/mL to 8.0 μg/mL = C); MIC ASPN 1027 ([18]; Table 2): B (MIC's of greater than 1.0 μg/mL to 8.0 μg/mL = B); MIC ASPN 1027 ([18]; Table 3): A (MIC's of less than 1.0 = A)
"NC1CCN2c3c(F)cc4c(=O)c(C(=O)O)cn(C5CC5)c4c3CCCC12.O=C(O)C(F)(F)F [16/18, (7aR,8R)-8-Amino-4-cyclopropyl-12-fluoro-1-oxo-4,5,6,7,7a,8,9,10-octahydro-1H-pyrrolo[1′,2′:1,7]azepino[2,3-h]quinoline-2-carboxylic acid trifluoroacetate]",A (MIC's of 1.0 μg/mL or less = A),A (MIC's of less than 1.0 = A),C (MIC's of greater than 8.0 μg/mL = C),D (MIC's of greater than 8.0 μg/mL = D),B (MIC's of greater than 1.0 μg/mL to 8.0 μg/mL = B),A (MIC's of 1.0 μg/mL or less = A),A (MIC's of less than 1.0 = A),A (MIC's of less than 1.0 = A),A (MIC's of 1.0 μg/mL or less = A),A (MIC's of less than 1.0 = A),B (MIC's of greater than 1.0 μg/mL to 8.0 μg/mL = B),C (MIC's of 2.0 μg/mL to 8.0 μg/mL = C),B (MIC's of greater than 1.0 μg/mL to 8.0 μg/mL = B),A (MIC's of less than 1.0 = A),C (MIC's of 2.0 μg/mL to 8.0 μg/mL = C),A (MIC's of less than 1.0 = A),C (MIC's of 2.0 μg/mL to 8.0 μg/mL = C),A (MIC's of less than 1.0 = A),A (MIC's of less than 1.0 = A),A (MIC's of 1.0 μg/mL or less = A),MIC APAE 001 ([14]; Table 3): A (MIC's of less than 1.0 = A); MIC ASPN 001 ([15]; Table 2): A (MIC's of 1.0 μg/mL or less = A); MIC ASPN 001 ([15]; Table 3): A (MIC's of less than 1.0 = A); MIC ASPN1018 [16]: B (MIC's of 1.0 μg/mL to 2.0 μg/mL = B); MIC AABA1020 [17]: D (MIC's of greater than 8.0 μg/mL = D); MIC ASPN 1027 ([18]; Table 2): B (MIC's of greater than 1.0 μg/mL to 8.0 μg/mL = B); MIC ASPN 1027 ([18]; Table 3): A (MIC's of less than 1.0 = A)
"N[C@H]1CCN2c3c(F)cc4c(=O)c(C(=O)O)cn(C5CC5)c4c3C=CC[C@H]12.O=C(O)C(F)(F)F [17/8, (7aR,8S)-8-Amino-4-cyclopropyl-12-fluoro-1-oxo-4,7,7a,8,9,10-hexahydro-1H-pyrrolo[1′,2′:1,7]azepino[2,3-h]quinoline-2-carboxylic acid trifluoroacetate]",A (MIC's of 1.0 μg/mL or less = A),A (MIC's of less than 1.0 = A),C (MIC's of greater than 8.0 μg/mL = C),D (MIC's of greater than 8.0 μg/mL = D),C (MIC's of greater than 8.0 μg/mL = C),A (MIC's of 1.0 μg/mL or less = A),A (MIC's of less than 1.0 = A),A (MIC's of less than 1.0 = A),A (MIC's of 1.0 μg/mL or less = A),A (MIC's of less than 1.0 = A),B (MIC's of greater than 1.0 μg/mL to 8.0 μg/mL = B),C (MIC's of 2.0 μg/mL to 8.0 μg/mL = C),B (MIC's of greater than 1.0 μg/mL to 8.0 μg/mL = B),A (MIC's of less than 1.0 = A),B (MIC's of 1.0 μg/mL to 2.0 μg/mL = B),A (MIC's of less than 1.0 = A),C (MIC's of 2.0 μg/mL to 8.0 μg/mL = C),A (MIC's of less than 1.0 = A),A (MIC's of less than 1.0 = A),A (MIC's of 1.0 μg/mL or less = A),MIC APAE 001 ([14]; Table 3): A (MIC's of less than 1.0 = A); MIC ASPN 001 ([15]; Table 2): A (MIC's of 1.0 μg/mL or less = A); MIC ASPN 001 ([15]; Table 3): A (MIC's of less than 1.0 = A); MIC ASPN1018 [16]: B (MIC's of 1.0 μg/mL to 2.0 μg/mL = B); MIC AABA1020 [17]: D (MIC's of greater than 8.0 μg/mL = D); MIC ASPN 1027 ([18]; Table 2): B (MIC's of greater than 1.0 μg/mL to 8.0 μg/mL = B); MIC ASPN 1027 ([18]; Table 3): A (MIC's of less than 1.0 = A)
"N[C@H]1CCN2c3c(F)cc4c(=O)c(C(=O)O)cn(C5CC5)c4c3CCC[C@H]12.O=C(O)C(F)(F)F [17/10, (7aR,8S)-8-Amino-4-cyclopropyl-12-fluoro-1-oxo-4,5,6,7,7a,8,9,10-octahydro-1H-pyrrolo[1′,2′:1,7]azepino-[2,3-h]quinoline-2-carboxylic acid trifluoroacetate]",A (MIC's of 1.0 μg/mL or less = A),A (MIC's of less than 1.0 = A),C (MIC's of greater than 8.0 μg/mL = C),D (MIC's of greater than 8.0 μg/mL = D),C (MIC's of greater than 8.0 μg/mL = C),A (MIC's of 1.0 μg/mL or less = A),A (MIC's of less than 1.0 = A),A (MIC's of less than 1.0 = A),A (MIC's of 1.0 μg/mL or less = A),A (MIC's of less than 1.0 = A),C (MIC's of greater than 8.0 μg/mL = C),D (MIC's of greater than 8.0 μg/mL = D),B (MIC's of greater than 1.0 μg/mL to 8.0 μg/mL = B),B (MIC's of 1.0 μg/mL to 2.0 μg/mL = B),D (MIC's of greater than 8.0 μg/mL = D),A (MIC's of less than 1.0 = A),D (MIC's of greater than 8.0 μg/mL = D),A (MIC's of less than 1.0 = A),A (MIC's of less than 1.0 = A),B (MIC's of greater than 1.0 μg/mL to 8.0 μg/mL = B),MIC APAE 001 ([14]; Table 3): B (MIC's of 1.0 μg/mL to 2.0 μg/mL = B); MIC ASPN 001 ([15]; Table 2): A (MIC's of 1.0 μg/mL or less = A); MIC ASPN 001 ([15]; Table 3): A (MIC's of less than 1.0 = A); MIC ASPN1018 [16]: C (MIC's of 2.0 μg/mL to 8.0 μg/mL = C); MIC AABA1020 [17]: D (MIC's of greater than 8.0 μg/mL = D); MIC ASPN 1027 ([18]; Table 2): B (MIC's of greater than 1.0 μg/mL to 8.0 μg/mL = B); MIC ASPN 1027 ([18]; Table 3): B (MIC's of 1.0 μg/mL to 2.0 μg/mL = B)
